According to US5441974A, “Phenyl amidines lactones useful as platelet aggregation inhibitors” (G. D. Searle & Co., priority 1994, dated 1995):
Structures can show the parent of a compound that is named as a salt.

Test system: platelet aggregation
Assay: In-Vitro Platelet Aggregation in PRP (ADP-induced)
Type: cell-based
Details: dog platelet-rich plasma, ADP 50 μm final; for IC50: 1 min preincubation at 37° C.; for % Inhibition: Test Concentration 1 × 10^-5
Description: Compounds of the invention were evaluated by an in vivo assay to determine compound activity as an inhibitors of platelet aggregation.
Healthy male or female dogs were fasted for 8 hours prior to drawing blood; then 30 mL whole blood was collected using a butterfly needle and 30 cc plastic syringe with 3 ml of 0.129M buffered sodium citrate (3.8%). The syringe was rotated carefully as blood was drawn to mix the citrate. Platelet-rich plasma (PRP) was prepared by centrifugation at 975×g for 3.17 minutes at room temperature, allowing the centrifuge to coast to a stop without braking. The PRP was removed from the blood with a plastic pipette and placed in a plastic capped, 50 ml Corning conical sterile centrifuge tube which was held at room temperature. Platelet poor plasma (PPP) was prepared by centrifuging the remaining blood at 2000×g for 15 minutes at room temperature allowing the centrifuge to coast to a stop without braking. The PRP was adjusted with PPP to a count of 2-3×10^8 platelets per ml. 400 μL of the PRP preparation and 50 μL of the compound to be tested or saline were preincubated for 1 minute at 37° C. in a BioData aggregometer (BioData, Horsham, Pa.). 50 μL of adenosine 5'diphosphate (ADP) (50 μm final concentration) was added to the cuvettes and the aggregation was monitored for 1 minute. All compounds are tested in duplicate. Results are calculated as follows:
Percent of control=[(maximal OD minus initial OD of compound) divided by (maximal OD minus initial OD of control saline)]×100. The % inhibition=100 - (percent of control).

[1] = Canis lupus familiaris, Platelet

SMILES	IC50	% Inhibition	IC50 [1]
N=C(N)c1ccc(CCCCC(=O)N[C@H]2CC(=O)OC2c2ccccc2)cc1 (single isomer, unassigned; diastereomer a) [Example 4]	680 nM	100%	
N=C(N)c1ccc(CCCCC(=O)N[C@H]2CC(=O)OC2c2ccccc2)cc1 (single isomer, unassigned; diastereoisomer b) [Example 5, 4-(aminoiminomethyl)-N-(tetrahydro-5-oxo-2-phenyl-3S-furanyl)benzenepentanamide, trifluoroacetate (diastereoisomer B)]	5100 nM		
N=C(N)c1ccc(CCCCC(=O)N[C@@H]2COC(=O)C2)cc1 [Example 1, 4-(Aminoiminomethyl)-N-(5-oxo-3S-furanyl)benzenepentanamide]		44%	
N=C(N)c1ccc(CCCCC(=O)N[C@H]2CC(=O)OC2c2nccs2)cc1 (single isomer, unassigned; diastereoisomer a) [Example 7, 4-(aminoiminomethyl)-N-[tetrahydro-5-oxo-2-(2-thiazolyl)-3S-furanyl]benzene pentanamide, bis(trifluoroacetate) (diastereoisomer A)]	> 10000 nM		
N=C(N)c1ccc(CCCCC(=O)NC2CC(=O)Oc3ccccc32)cc1 (racemic) [Example 2, (±)-4-(Aminoiminomethyl)-N-(3,4-dihydro-2-oxo-2H-1-benzopyran-4-yl) benzenepentanamide]			2000 nM
N=C(N)c1ccc(CCCCC(=O)NC2CC(=O)OC2c2nccs2)cc1 (single isomer, unassigned; diastereoisomer b) [Example 8, 4-(aminoiminomethyl)-N-[tetrahydro-5-oxo-2-(2-thiazolyl)-3S-furanyl]benzene pentanamide, trifluoroacetate. (diastereoisomer B)]	> 10000 nM		
COc1ccc2c(c1)OC(=O)CC2NC(=O)CCCCc1ccc(C(=N)N)cc1 (racemic) [Example 3, (±)-4-(Aminoiminomethyl)-N-(3,4-dihydro-7-methoxy-2-oxo-2H-1-benzopyran-4-yl)benzenepentanamide]		96%	1100 nM
